{
  "source": "paper PMC7587962",
  "about": "“Evaluation of Cytotoxicity and α-Glucosidase Inhibitory Activity of Amide and Polyamino-Derivatives of Lupane Triterpenoids” (Molecules, 2020)",
  "key": {"[1]": {"tested_on": "60 human tumor cell lines", "experiment": "cells"}, "[2]": {"tested_on": "Rat Liver ER Neutral α-Glucosidase", "experiment": "Endoplasmic reticulum α-glucosidase activity assay", "format": "biochemical", "source_text": "Betulinic acid inhibits yeast α-glucosidase activity and interferes with N-linked glycan modifications to cell-surface intercellular adhesion molecule-1 (ICAM-1) in human lung carcinoma A549 cells in a similar manner to castanospermine, an inhibitor of endoplasmic reticulum α-glucosidases I and II [66]. […] Taken together, these considerations prompted us to evaluate a series of lupanes with amide function or polyamine chain 11, 12, 16, 18, and 22–26 for α-glucosidase inhibition. Initially, they were screened against α-glucosidase of S. cerevisiae as an accessible and high-throughput model. Confirmatory experiments were performed on isolated rough endoplasmic reticulum vesicles from rat liver, which contain neutral α-glucosidases I and II in a membrane-bound form.\nEndoplasmic reticulum was isolated from hepatocytes of decapitated male Sprague-Dawley rats, which were starved overnight and sacrificed the next morning. All experiments were approved by Volgograd regional ethic committee. The whole procedure was performed at 4 °C. In brief, a fresh tissue sample from an animal was washed twice with 10 mL of PBS to remove residual blood. The tissue was placed on a paper towel in order to absorb excess liquid and blood clots, if present. It was cut further into small pieces (1.5–2 cm) and washed once more. […] Homogenate was centrifuged at 1000× g for 10 min at 4 °C. After removal of the floating lipid layer by aspiration, supernatant was separated and centrifuged at 12,000× g for 15 min. at 4 °C. The supernatant fraction, which is the post mitochondrial fraction (PMF), was used for isolation of rough endoplasmic reticulum (RER) enriched microsomes by precipitation with 8 mM CaCl2 added dropwise. The final concentration of CaCl2 was 7 mM. Resulting sample was centrifuged at 8000 g for 10 min. at 4 °C. The supernatant was discarded, and the pellet was suspended in isotonic extraction buffer (0.3 mL of buffer for each g of original tissue). The suspension was homogenized completely to afford RER enriched microsomes. In a 96-well flat transparent plate 25 µL of the isolated RER microsomes were incubated with 50 µL of test compounds in 67 mM PBS (pH 6.8) at 37 °C for 10 min. Then, p-nitrophenyl-α-D-glucopyranoside (Sigma #N1377, St. Louis, MO, USA) was added to 1 mM final concentration and increase in absorbance was recorded for 42 min at 405 nm wavelength with Infinite M200 PRO microplate reader (Tecan, Austria). Concentration of RER microsomes was adjusted to achieve an increase in optical density of ~0.2 in control samples after 30 min. of incubation. Test compounds were prepared as described above for the yeast α-glucosidase assay."}, "Yeast α-Glucosidase": {"target": "Yeast α-Glucosidase", "experiment": "Yeast α-glucosidase activity assay", "format": "biochemical, S. cerevisiae", "conditions": "pH 6.8, 37 °C, p-nitrophenyl-α-D-glucopyranoside 1 mM; read-out: Yeast α-Glucosidase, IC50 ± SE", "description": "Taken together, these considerations prompted us to evaluate a series of lupanes with amide function or polyamine chain 11, 12, 16, 18, and 22–26 for α-glucosidase inhibition. Initially, they were screened against α-glucosidase of S. cerevisiae as an accessible and high-throughput model. Confirmatory experiments were performed on isolated rough endoplasmic reticulum vesicles from rat liver, which contain neutral α-glucosidases I and II in a membrane-bound form.\nIn a 96-well flat transparent plate, the 0.12 U/mL enzyme solution (EC 3.2.1.20, expressed in S. cerevisiae, Sigma #G0660, St. Louis, MO, USA) was incubated with test compounds in 67 mM PBS (pH 6.8) at 37 °C for 5 min. Then, p-nitrophenyl-α-D-glucopyranoside (Sigma #N1377, St. Louis, MO, USA) was added to 1 mM final concentration and an increase in absorbance was recorded for 15 min at 405 nm wavelength with Infinite M200 PRO microplate reader (Tecan, Austria). Test compounds were dissolved in DMSO and diluted to the desired concentration in 67 mM PBS (pH 6.8) supplemented with 0.01% Tween 80 to avoid aggregation. Final DMSO concentration was <0.25% in sample wells, and it was also introduced in control and blank wells. […] Due to the absence of normal distribution of data, a Mann–Whitney U-test was used to determine statistical significance versus enzyme control using GraphPad Prism 8.0.1."}, "SW-620": {"tested_on": "SW-620", "experiment": "NCI-60 SRB screen: colon cancer SW-620", "format": "cell-based", "conditions": "Homo sapiens, 48 h; SW-620; single dose 10 µM; read-out: Percentage Cell Growth"}, "KM12": {"tested_on": "KM12", "experiment": "NCI-60 SRB screen: colon cancer KM12", "format": "cell-based, human", "conditions": "KM12; single dose 10 µM"}, "LOX IMVI": {"tested_on": "LOX IMVI", "experiment": "NCI-60 SRB screen: melanoma LOX IMVI", "format": "cell-based, human", "conditions": "single dose 10 µM"}, "NCI-H460": {"tested_on": "NCI-H460", "experiment": "NCI-60 SRB screen: non-small cell lung cancer NCI-H460", "format": "cell-based", "conditions": "Homo sapiens, 48 h; NCI-H460; single dose 10 µM; read-out: Percentage Cell Growth"}, "IGROV1": {"tested_on": "IGROV1", "experiment": "NCI-60 SRB screen: ovarian cancer IGROV1", "format": "cell-based, human", "conditions": "IGROV1; single dose 10 µM"}, "RPMI-8226": {"tested_on": "RPMI-8226", "experiment": "NCI-60 SRB screen: leukemia RPMI-8226", "format": "cell-based", "conditions": "Homo sapiens, 48 h; RPMI-8226; single dose 10 µM; read-out: Percentage Cell Growth"}, "SR": {"tested_on": "SR", "experiment": "NCI-60 SRB screen: leukemia SR", "format": "cell-based", "conditions": "Homo sapiens, 48 h, single dose 10 µM, read-out: Percentage Cell Growth"}, "OVCAR-8": {"tested_on": "OVCAR-8", "experiment": "NCI-60 SRB screen: ovarian cancer OVCAR-8", "format": "cell-based, human", "conditions": "OVCAR-8; single dose 10 µM"}, "MCF7": {"tested_on": "MCF7", "experiment": "NCI-60 SRB screen: breast cancer MCF7", "format": "cell-based", "conditions": "Homo sapiens, 48 h; MCF7; single dose 10 µM; read-out: Percentage Cell Growth"}, "HCT-116": {"tested_on": "HCT-116", "experiment": "NCI-60 SRB screen: colon cancer HCT-116", "format": "cell-based", "conditions": "Homo sapiens, 48 h; HCT-116; single dose 10 µM; read-out: Percentage Cell Growth"}, "HT29": {"tested_on": "HT29", "experiment": "NCI-60 SRB screen: colon cancer HT29", "format": "cell-based", "conditions": "Homo sapiens, HT-29, 48 h; HT29; single dose 10 µM; read-out: Percentage Cell Growth"}, "MOLT-4": {"tested_on": "MOLT-4", "experiment": "NCI-60 SRB screen: leukemia MOLT-4", "format": "cell-based", "conditions": "Homo sapiens, 48 h; MOLT-4; single dose 10 µM; read-out: Percentage Cell Growth"}, "COLO 205": {"tested_on": "COLO 205", "experiment": "NCI-60 SRB screen: colon cancer COLO 205", "format": "cell-based, human", "conditions": "COLO 205; single dose 10 µM"}, "CCRF-CEM": {"tested_on": "CCRF-CEM", "experiment": "NCI-60 SRB screen: leukemia CCRF-CEM", "format": "cell-based", "conditions": "Homo sapiens, 48 h, single dose 10 µM, read-out: Percentage Cell Growth"}, "U251": {"tested_on": "U251", "experiment": "NCI-60 SRB screen: CNS cancer U251", "format": "cell-based", "conditions": "Homo sapiens, U-251, 48 h; U251; single dose 10 µM; read-out: Percentage Cell Growth"}, "K-562": {"tested_on": "K-562", "experiment": "NCI-60 SRB screen: leukemia K-562", "format": "cell-based, human", "conditions": "K-562; single dose 10 µM"}},
  "note": "Like-named read-outs stand apart in the source and are kept apart here.",
  "data": [
    {"smiles": "C=C(C)[C@@H]1CC[C@]2(C(=O)NN(CCN(CCNC(=O)OC(C)(C)C)C(=O)OC(C)(C)C)C(=O)OC(C)(C)C)CC[C@]3(C)[C@H](CC[C@@H]4[C@@]5(C)CCC(=O)C(C)(C)[C@@H]5CC[C@]43C)[C@@H]12", "note": "[Compound 15]", "values": [
      {"measurement": "activity at 10 µM", "setting": "[1]; read-out: Mean Growth, %", "result": 90.1, "unit": "%"},
      {"measurement": "activity at 10 µM", "setting": "[1]; read-out: Range of Growth, %", "result": "56.8 to 114", "unit": "%"}
    ]},
    {"smiles": "C=C(C)[C@@H]1CC[C@]2(C(=O)NCCCC[C@@H](N)C(=O)OC)CC[C@]3(C)[C@H](CC[C@@H]4[C@@]5(C)CCC(=O)C(C)(C)[C@@H]5CC[C@]43C)[C@@H]12", "note": "[Compound 17]", "values": [
      {"measurement": "activity at 10 µM", "setting": "[1]; read-out: Mean Growth, %", "result": 98.7, "unit": "%"},
      {"measurement": "activity at 10 µM", "setting": "[1]; read-out: Range of Growth, %", "result": "79.2 to 111", "unit": "%"}
    ]},
    {"smiles": "C=C(C)[C@@H]1CC[C@]2(COCCCN)CC[C@]3(C)[C@H](CC[C@@H]4[C@@]5(C)CC[C@H](OCCCN)C(C)(C)[C@@H]5CC[C@]43C)[C@@H]12", "note": "[Compound 18]", "values": [
      {"measurement": "Rat Liver ER Neutral α-Glucosidase Inhibition, m ± SD", "setting": "[2]; 10 μM", "result": "56.64 ± 4.24", "unit": "%"},
      {"measurement": "Rat Liver ER Neutral α-Glucosidase Inhibition, m ± SD", "setting": "[2]; 100 μM", "result": "36.51 ± 14.90", "unit": "%"},
      {"measurement": "IC50", "setting": "Yeast α-Glucosidase", "result": "5.7 ± 1.09", "unit": "µM"}
    ]},
    {"smiles": "C=C(C)[C@@H]1CC[C@]2(C(=O)NCCCCCCN(CCCN)CCCN)CC[C@]3(C)[C@H](CC[C@@H]4[C@@]5(C)CC[C@H](OCCCN)C(C)(C)[C@@H]5CC[C@]43C)[C@@H]12", "note": "[Compound 19]", "values": [
      {"measurement": "activity at 10 µM", "setting": "SW-620", "result": 7.33, "unit": "%"},
      {"measurement": "Percentage Cell Growth", "setting": "KM12", "result": 31.48, "unit": "%"},
      {"measurement": "Percentage Cell Growth", "setting": "LOX IMVI", "result": 5.71, "unit": "%"},
      {"measurement": "activity at 10 µM", "setting": "NCI-H460", "result": -16.2, "unit": "%"},
      {"measurement": "Percentage Cell Growth", "setting": "IGROV1", "result": 27.33, "unit": "%"},
      {"measurement": "activity at 10 µM", "setting": "RPMI-8226", "result": 29.3, "unit": "%"},
      {"measurement": "activity at 10 µM", "setting": "SR", "result": 18.4, "unit": "%"},
      {"measurement": "Percentage Cell Growth", "setting": "OVCAR-8", "result": "−28.27", "unit": "%"},
      {"measurement": "activity at 10 µM", "setting": "MCF7", "result": 14.5, "unit": "%"},
      {"measurement": "activity at 10 µM", "setting": "[1]; read-out: Mean Growth, %", "result": 63, "unit": "%"},
      {"measurement": "activity at 10 µM", "setting": "[1]; read-out: Range of Growth, %", "result": "-39.5 to 141", "unit": "%"},
      {"measurement": "activity at 10 µM", "setting": "HCT-116", "result": 12.6, "unit": "%"},
      {"measurement": "activity at 10 µM", "setting": "HT29", "result": 4.21, "unit": "%"},
      {"measurement": "activity at 10 µM", "setting": "MOLT-4", "result": 10.1, "unit": "%"},
      {"measurement": "Percentage Cell Growth", "setting": "COLO 205", "result": 18.88, "unit": "%"},
      {"measurement": "activity at 10 µM", "setting": "CCRF-CEM", "result": 11.8, "unit": "%"},
      {"measurement": "activity at 10 µM", "setting": "U251", "result": -39.5, "unit": "%"},
      {"measurement": "Percentage Cell Growth", "setting": "K-562", "result": 1.52, "unit": "%"}
    ]},
    {"smiles": "C=C(C)[C@@H]1CC[C@]2(C(=O)N3CCNCC3)CC[C@]3(C)[C@H](CC[C@@H]4[C@@]5(C)CCC(=O)C(C)(C)[C@@H]5CC[C@]43C)[C@@H]12", "note": "[Compound 20]", "values": [
      {"measurement": "activity at 10 µM", "setting": "[1]; read-out: Mean Growth, %", "result": 101, "unit": "%"},
      {"measurement": "activity at 10 µM", "setting": "[1]; read-out: Range of Growth, %", "result": "87.8 to 111", "unit": "%"}
    ]},
    {"smiles": "C=C(C)[C@@H]1CC[C@]2(CO)CC[C@]3(C)[C@H](CC[C@@H]4[C@@]5(C)CCCNC(C)(C)[C@@H]5CC[C@]43C)[C@@H]12", "note": "[Compound 23]", "values": [
      {"measurement": "Rat Liver ER Neutral α-Glucosidase Inhibition, m ± SD", "setting": "[2]; 10 μM", "result": "−1.34 ± 2.22", "unit": "%"},
      {"measurement": "Rat Liver ER Neutral α-Glucosidase Inhibition, m ± SD", "setting": "[2]; 100 μM", "result": "5.85 ± 8.03", "unit": "%"},
      {"measurement": "IC50", "setting": "Yeast α-Glucosidase", "result": "> 100", "unit": "µM"}
    ]}
  ]
}
